Experimental data as given in article PMC11062899, “De novo development of small cyclic peptides that are orally bioavailable” (Nature Chemical Biology, 2023).

Molecular target: human α-thrombin (Homo sapiens, UniProt P00734)
Test: Sub-library screen for active and permeable cyclic peptides (PAMPA plus thrombin inhibition)
Assay type: biochemical
Details: crude, slopes normalized to DMSO; for Residual thrombin activity: Top sample: PAMPA acceptor well after 14 h, 5 μM donor; for Residual thrombin activity: Equilibrated sample: donor sample diluted to theoretical equilibrium (1 μM in assay)
How it was run: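 Acylated cyclic peptides at 5 μM in PBS pH 7.4 with 5% DMSO were run through PAMPA for 14 h at room temperature. Acceptor wells and a diluted donor sample at 3 μM, representing maximum permeability, were preincubated 10 min with human α-thrombin (6 nM stock). Z-Gly-Gly-Arg-AMC (150 μM stock) fluorescence was then read for 30 min at 25 °C, and inhibition was taken against a no-peptide control.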

Residual thrombin activity: Top sample	Residual thrombin activity: Equilibrated sample	SMILES
101.8	100.4	N#Cc1ccc(C[C@@H]2NC(=O)[C@@H](NC(=O)c3ccc(Cl)s3)CCSCc3ccc(cc3)CSCCNC(=O)C[C@H]3CCCN3C2=O)cc1 [C2-X35-L3]
105.7	97.1	COc1ccc(C[C@@H]2NC(=O)[C@@H](NC(=O)c3ccc(Cl)s3)CCCSCCS(=O)(=O)CCSCCNC(=O)C[C@H]3CCCN3C2=O)cc1 [C3-X33-L2]
93.0	90.7	O=C1C[C@H]2CCCN2C(=O)[C@@H](Cc2ccccc2)NC(=O)[C@@H](NC(=O)c2ccc(Cl)s2)CCSCc2cccc(n2)CSCCN1 [C2-X31-L1]
92.1	73.3	O=C1C[C@H]2CCCN2C(=O)[C@H](Cc2ccccc2)NC(=O)[C@@H](NC(=O)c2ccc(Cl)s2)CSCc2cccc(c2)CSCCN1 [C1-X5-L5]
95.9	98.3	O=C1C[C@H]2CCCN2C(=O)[C@H](Cc2ccc(Cl)cc2)NC(=O)[C@@H](NC(=O)c2ccc(Cl)s2)CSCCS(=O)(=O)CCSCCN1 [C1-X34-L2]
100.6	93.7	COc1ccc(C[C@@H]2NC(=O)[C@@H](NC(=O)c3ccc(Cl)s3)CCSC/C=C/CSCCNC(=O)C[C@H]3CCCN3C2=O)cc1 [C2-X33-L4]
93.4	96.9	N#Cc1ccc(C[C@@H]2NC(=O)[C@@H](NC(=O)c3ccc(Cl)s3)CSC/C=C/CSCCNC(=O)C[C@H]3CCCN3C2=O)cc1 [C1-X35-L4]
104.7	100.8	CN1C(=O)[C@@H](NC(=O)c2ccc(Cl)s2)CCSCc2cccc(c2)CSCCNC(=O)C[C@H]2CCCN2C(=O)[C@@H]1Cc1ccccc1 [C2-X32-L5]
93.6	95.7	O=C1C[C@H]2CCCN2C(=O)[C@H](Cc2ccc(Cl)cc2)NC(=O)[C@@H](NC(=O)c2ccc(Cl)s2)CCSCc2ccccc2CSCCN1 [C2-X34-L6]
103.6	103.6	CN1C(=O)[C@@H](NC(=O)c2ccc(Cl)s2)CCCSCc2cccc(c2)CSCCNC(=O)C[C@H]2CCCN2C(=O)[C@@H]1Cc1ccccc1 [C3-X32-L5]
90.6	77.5	Cc1cccc(C[C@@H]2NC(=O)[C@@H](NC(=O)c3ccc(Cl)s3)CCSC/C=C/CSCCNC(=O)C[C@H]3CCCN3C2=O)c1 [C2-X37-L4]
97.6	87.4	O=C1C[C@H]2CCCN2C(=O)[C@@H](Cc2ccccc2)NC(=O)[C@@H](NC(=O)c2ccc(Cl)s2)CCCSCc2ccccc2CSCCN1 [C3-X31-L6]
105.6	108.0	O=C1C[C@H]2CCCN2C(=O)[C@H](Cc2ccc(C(F)(F)F)cc2)NC(=O)[C@@H](NC(=O)c2ccc(Cl)s2)CCCSCc2cccc(c2)CSCCN1 [C3-X36-L5]
97.5	96.9	Cc1cccc(C[C@@H]2NC(=O)[C@@H](NC(=O)c3ccc(Cl)s3)CCSCc3ccccc3CSCCNC(=O)C[C@H]3CCCN3C2=O)c1 [C2-X37-L6]
100.5	100.3	N#Cc1ccc(C[C@@H]2NC(=O)[C@@H](NC(=O)c3ccc(Cl)s3)CCSC/C=C/CSCCNC(=O)C[C@H]3CCCN3C2=O)cc1 [C2-X35-L4]
105.2	103.4	O=C1C[C@H]2CCCN2C(=O)[C@@H](Cc2ccccc2)NC(=O)[C@@H](NC(=O)c2ccc(Cl)s2)CCCSCc2cccc(c2)CSCCN1 [C3-X31-L5]
88.1	37.4	O=C1C[C@H]2CCCN2C(=O)[C@H](Cc2ccccc2)NC(=O)[C@@H](NC(=O)c2ccc(Cl)s2)CSCCS(=O)(=O)CCSCCN1 [C1-X5-L2]
100.3	99.5	O=C1CSCCNC(=O)C[C@H]2CCCN2C(=O)[C@H](Cc2ccc(C(F)(F)F)cc2)NC(=O)[C@@H](NC(=O)c2ccc(Cl)s2)CSC1 [C1-X36-L7]
90.0	91.7	N#Cc1ccc(C[C@@H]2NC(=O)[C@@H](NC(=O)c3ccc(Cl)s3)CCSCc3ccccc3CSCCNC(=O)C[C@H]3CCCN3C2=O)cc1 [C2-X35-L6]
95.4	96.7	CN1C(=O)[C@@H](NC(=O)c2ccc(Cl)s2)CSCC(=O)CSCCNC(=O)C[C@H]2CCCN2C(=O)[C@@H]1Cc1ccccc1 [C1-X32-L7]
93.7	100.8	CN1C(=O)[C@@H](NC(=O)c2ccc(Cl)s2)CCSCCS(=O)(=O)CCSCCNC(=O)C[C@H]2CCCN2C(=O)[C@@H]1Cc1ccccc1 [C2-X32-L2]
102.9	98.1	CN1C(=O)[C@@H](NC(=O)c2ccc(Cl)s2)CCCSCC(=O)CSCCNC(=O)C[C@H]2CCCN2C(=O)[C@@H]1Cc1ccccc1 [C3-X32-L7]
102.1	99.4	O=C1CSCCC[C@H](NC(=O)c2ccc(Cl)s2)C(=O)N[C@H](Cc2ccccc2)C(=O)N2CCC[C@@H]2CC(=O)NCCSC1 [C3-X31-L7]
99.9	83.6	Cc1cccc(C[C@@H]2NC(=O)[C@@H](NC(=O)c3ccc(Cl)s3)CCSCC(=O)CSCCNC(=O)C[C@H]3CCCN3C2=O)c1 [C2-X37-L7]
100.8	98.3	O=C1C[C@H]2CCCN2C(=O)[C@@H](Cc2ccccc2)NC(=O)[C@@H](NC(=O)c2ccc(Cl)s2)CCCSC/C=C/CSCCN1 [C3-X31-L4]
78.3	49.4	Cc1cccc(C[C@@H]2NC(=O)[C@@H](NC(=O)c3ccc(Cl)s3)CCCSCc3cccc(n3)CSCCNC(=O)C[C@H]3CCCN3C2=O)c1 [C3-X37-L1]
104.6	101.4	O=C1CSCCNC(=O)C[C@H]2CCCN2C(=O)[C@H](Cc2ccc(Cl)cc2)NC(=O)[C@@H](NC(=O)c2ccc(Cl)s2)CCSC1 [C2-X34-L7]
87.6	99.6	CN1C(=O)[C@@H](NC(=O)c2ccc(Cl)s2)CSCc2cccc(n2)CSCCNC(=O)C[C@H]2CCCN2C(=O)[C@@H]1Cc1ccccc1 [C1-X32-L1]
92.7	95.5	COc1ccc(C[C@@H]2NC(=O)[C@@H](NC(=O)c3ccc(Cl)s3)CCSCc3ccccc3CSCCNC(=O)C[C@H]3CCCN3C2=O)cc1 [C2-X33-L6]
96.8	97.9	O=C1C[C@H]2CCCN2C(=O)[C@H](Cc2ccc(C(F)(F)F)cc2)NC(=O)[C@@H](NC(=O)c2ccc(Cl)s2)CCSCc2ccccc2CSCCN1 [C2-X36-L6]
